# Experimental data as given in patent US20170071944A1, “MODULATORS OF TOLL-LIKE RECEPTORS FOR THE TREATMENT OF HIV” (Gilead Sciences, Inc., priority 2015, published 2017).
# System: immune cell subsets in PBMC cultures from HIV-1 infected subjects on cART
# Test: Induced immune cell activation in PBMC cultures from HIV-1 infected subjects on cART (flow cytometry)
# Type: cell-based, human
# Settings: for B Cells CD69 % / B Cells CD69 Fold vs DMSO / B Cells CD80 % / B Cells CD80 Fold vs DMSO / DCs CD69 % / DCs CD69 Fold vs DMSO / DCs CD80 % / DCs CD80 Fold vs DMSO / CD4+ T Cells CD25 % / CD4+ T Cells CD25 Fold vs DMSO / CD4+ T Cells CD69 % / CD4+ T Cells CD69 Fold vs DMSO / CD4+ T Cells Perforin % / CD4+ T Cells Perforin Fold vs DMSO / CD8+ T Cells CD25 % / CD8+ T Cells CD25 Fold vs DMSO / CD8+ T Cells CD28 % / CD8+ T Cells CD28 Fold vs DMSO / CD8+ T Cells CD38 % / CD8+ T Cells CD38 Fold vs DMSO / CD8+ T Cells CD69 % / CD8+ T Cells CD69 Fold vs DMSO / Monocytes CD11c % / Monocytes CD11c Fold vs DMSO / Monocytes CD69 % / Monocytes CD69 Fold vs DMSO / Monocytes CD80 % / Monocytes CD80 Fold vs DMSO / NK Cells CD25 % / NK Cells CD25 Fold vs DMSO / NK Cells CD69 % / NK Cells CD69 Fold vs DMSO: 2 days, geometric mean; for B Cells CD69 % / B Cells CD69 Fold vs DMSO / B Cells CD80 % / B Cells CD80 Fold vs DMSO / DCs CD69 % / DCs CD69 Fold vs DMSO / DCs CD80 % / DCs CD80 Fold vs DMSO: N = 4; for CD4+ T Cells CD25 % / CD4+ T Cells CD25 Fold vs DMSO / CD4+ T Cells CD69 % / CD4+ T Cells CD69 Fold vs DMSO / CD4+ T Cells Perforin % / CD4+ T Cells Perforin Fold vs DMSO / CD8+ T Cells CD25 % / CD8+ T Cells CD25 Fold vs DMSO / CD8+ T Cells CD28 % / CD8+ T Cells CD28 Fold vs DMSO / CD8+ T Cells CD38 % / CD8+ T Cells CD38 Fold vs DMSO / CD8+ T Cells CD69 % / CD8+ T Cells CD69 Fold vs DMSO / Monocytes CD11c % / Monocytes CD11c Fold vs DMSO / Monocytes CD69 % / Monocytes CD69 Fold vs DMSO / Monocytes CD80 % / Monocytes CD80 Fold vs DMSO / NK Cells CD25 % / NK Cells CD25 Fold vs DMSO / NK Cells CD69 % / NK Cells CD69 Fold vs DMSO: N = 6
# Procedure: TLR8 modulating compound affects activation of distinct cell populations, PBMCs were purified from HIV-1 infected subjects on cART, as described in Example 121 (anonymized participant IDs 184, 185, 188, 189, 190, and 191). […] After incubation, PBMCs were harvested and stained with antibodies conjugated to specific fluorophores (BD Biosciences) to delineate immune cell subsets: CD4 T cells (CD3+ CD4+ CD8-), CD8 T cells (CD3+ CD8+ CD4-), NK cells (CD3-CD56+ CD16+), monocytes (CD3-CD14+), B cells (CD3-CD19+), and peripheral dendritic cells (DCs), defined as positive for HLA-DR and negative for a panel of markers: CD3, CD14, CD16, CD19, CD20, CD56 (Lin-1 lineage panel, BD Biosciences).
# Additional markers of activation, maturation, and effector function were included for cell subsets, as follows: CD4 and CD8 T cells (CD25, CD38, CD69, IFN-γ, granzyme B, perforin, TNF-α), NK cells (CD25, CD69, IFN-γ), monocytes (CD11c, CD16, CD80, CD86, CD163, TNF-α), B cells (CD40, CD69, CD80, CD86), and DC (CD11c, CD69, CD80, CD86, CD123, and CD163). Cells were stained for surface markers (CD3, CD4, CD8, CD11c, CD14, CD16, CD25, CD69, CD80, CD86, CD163), washed, treated with fixation and permeabilization buffer (eBioscience), and stained for intracellular markers (IFN-γ, granzyme B, perforin, TNF-α). Cells were evaluated by flow cytometry on a LSR Fortessa (BD Biosciences), and data was analyzed with FlowJo software (TreeStar).
# Data are expressed as geometric mean percentage (%) and as geometric mean fold-activation (Fold) for each marker and for each PBMC subset obtained from 4 or 6 subjects, as indicated. Fold activation is calculated as a ratio of the % positive for each marker for each PBMC subset at the indicated concentration of the compound of Example 15 relative to % positive for DMSO treated samples. Fold activations that are 1.5 are in bold.
smiles,measurement,setting,value
CCCC[C@H](CO)Nc1nc(N)nc2cccnc12 [Example 15],Perforin in CD8+ T cells with treatment,,did not increase
same,B Cells CD69 %,Example 15 10 nM,10.0%
same,B Cells CD69 Fold vs DMSO,Example 15 10 nM,1.2 fold
same,B Cells CD80 %,Example 15 10 nM,2.6%
same,B Cells CD80 Fold vs DMSO,Example 15 10 nM,1.6 fold
same,DCs CD69 %,Example 15 10 nM,0.3%
same,DCs CD69 Fold vs DMSO,Example 15 10 nM,0.1 fold
same,DCs CD80 %,Example 15 10 nM,49.8%
same,DCs CD80 Fold vs DMSO,Example 15 10 nM,1.8 fold
same,CD4+ T Cells CD25 %,Example 15 10 nM,1.5%
same,CD4+ T Cells CD25 Fold vs DMSO,Example 15 10 nM,0.6 fold
same,CD4+ T Cells CD69 %,Example 15 10 nM,5.7%
same,CD4+ T Cells CD69 Fold vs DMSO,Example 15 10 nM,0.7 fold
same,CD4+ T Cells Perforin %,Example 15 10 nM,11.8%
same,CD4+ T Cells Perforin Fold vs DMSO,Example 15 10 nM,1.5 fold
same,CD8+ T Cells CD25 %,Example 15 10 nM,0.2%
same,CD8+ T Cells CD25 Fold vs DMSO,Example 15 10 nM,0.6 fold
same,CD8+ T Cells CD28 %,Example 15 10 nM,0.1%
same,CD8+ T Cells CD28 Fold vs DMSO,Example 15 10 nM,0.9 fold
same,CD8+ T Cells CD38 %,Example 15 10 nM,25.3%
same,CD8+ T Cells CD38 Fold vs DMSO,Example 15 10 nM,0.9 fold
same,CD8+ T Cells CD69 %,Example 15 10 nM,3.7%
same,CD8+ T Cells CD69 Fold vs DMSO,Example 15 10 nM,0.8 fold
same,Monocytes CD11c %,Example 15 10 nM,0.4%
same,Monocytes CD11c Fold vs DMSO,Example 15 10 nM,0.6 fold
same,Monocytes CD69 %,Example 15 10 nM,0.8%
same,Monocytes CD69 Fold vs DMSO,Example 15 10 nM,0.3 fold
same,Monocytes CD80 %,Example 15 10 nM,33.0%
same,Monocytes CD80 Fold vs DMSO,Example 15 10 nM,1.1 fold
same,NK Cells CD25 %,Example 15 10 nM,0.2%
same,NK Cells CD25 Fold vs DMSO,Example 15 10 nM,0.4 fold
same,NK Cells CD69 %,Example 15 10 nM,0.8%
same,NK Cells CD69 Fold vs DMSO,Example 15 10 nM,0.4 fold
same,B Cells CD69 %,Example 15 100 nM,3.9%
same,B Cells CD69 Fold vs DMSO,Example 15 100 nM,0.5 fold
same,B Cells CD80 %,Example 15 100 nM,1.7%
same,B Cells CD80 Fold vs DMSO,Example 15 100 nM,1.1 fold
same,DCs CD69 %,Example 15 100 nM,1.0%
same,DCs CD69 Fold vs DMSO,Example 15 100 nM,0.4 fold
same,DCs CD80 %,Example 15 100 nM,67.2%
same,DCs CD80 Fold vs DMSO,Example 15 100 nM,2.4 fold
same,CD4+ T Cells CD25 %,Example 15 100 nM,3.9%
same,CD4+ T Cells CD25 Fold vs DMSO,Example 15 100 nM,1.7 fold
same,CD4+ T Cells CD69 %,Example 15 100 nM,7.7%
same,CD4+ T Cells CD69 Fold vs DMSO,Example 15 100 nM,1.0 fold
same,CD4+ T Cells Perforin %,Example 15 100 nM,10.4%
same,CD4+ T Cells Perforin Fold vs DMSO,Example 15 100 nM,1.3 fold
same,CD8+ T Cells CD25 %,Example 15 100 nM,0.3%
same,CD8+ T Cells CD25 Fold vs DMSO,Example 15 100 nM,1.0 fold
same,CD8+ T Cells CD28 %,Example 15 100 nM,0.1%
same,CD8+ T Cells CD28 Fold vs DMSO,Example 15 100 nM,1.1 fold
same,CD8+ T Cells CD38 %,Example 15 100 nM,29.2%
same,CD8+ T Cells CD38 Fold vs DMSO,Example 15 100 nM,1.0 fold
same,CD8+ T Cells CD69 %,Example 15 100 nM,3.4%
same,CD8+ T Cells CD69 Fold vs DMSO,Example 15 100 nM,0.7 fold
same,Monocytes CD11c %,Example 15 100 nM,3.6%
same,Monocytes CD11c Fold vs DMSO,Example 15 100 nM,5.2 fold
same,Monocytes CD69 %,Example 15 100 nM,1.8%
same,Monocytes CD69 Fold vs DMSO,Example 15 100 nM,0.6 fold
same,Monocytes CD80 %,Example 15 100 nM,47.7%
same,Monocytes CD80 Fold vs DMSO,Example 15 100 nM,1.6 fold
same,NK Cells CD25 %,Example 15 100 nM,0.8%
same,NK Cells CD25 Fold vs DMSO,Example 15 100 nM,1.6 fold
same,NK Cells CD69 %,Example 15 100 nM,1.1%
same,NK Cells CD69 Fold vs DMSO,Example 15 100 nM,0.6 fold
